Measurements taken from patent publication US20160053226A1, “Method and Medium for Amplifying Neural Precursor Cells” (INSERM (INSTITUT NATIONAL DE LA SANTÉ ET DE LA RECHERCHE …, priority 2013, published 2016).

Columns and labels:
neural precursors [1] = experiment: Kinase inhibitor library screening for sustaining neural precursor proliferation (Ki67, EdU incorporation); assay type: cell-based, human; conditions: SA001-derived neural precursors, N2B27 without growth factors, day 7, compared to DMSO-treated cells
Protocol: Cells were fixed with 4% PFA for 15 min at 4° C. then permeabilized using a PBS/0.3% Triton X100 solution, 10 min at RT. Incubation with primary antibodies was performed. AlexaFluor secondary antibodies and DAPI counterstaining were applied for 1 h at room temperature. Detection was performed using a Zeiss Inverted microscope or the Arrayscan automated microscope.
A homogeneous population of neural precursors was produced after conversion of SA001 PSC line into neural cells and further amplification using EFB medium until passage 8. The stable neural precursors were seeded in 384 well-plates using Agilent BRAVO automate in N2B27 without growth factors. Six hours post-seeding, cells were treated with Enzo Life Sciences Kinase inhibitors library (BML-2832), a collection of 80 different kinase inhibitors. Another treatment was performed at day 4 and the percentage of proliferative precursors was quantified at day 7 using Ki67 and EdU incorporation. SOX2 was used as a neural marker.

neural precursors [2] = experiment: Terminal differentiation into neurons of amplified neural precursors; assay type: cell-based, human; conditions: amplified for 5 passages, compared to EFB medium
Description: Terminal differentiation into neurons was induced by plating neural precursors on poly-ornithin/laminin at a density of 50,000 cells/cm^2 in N2B27 medium. Medium was changed every 4 days.
We next measured the ability of neural precursors amplified using the PKA inhibitor HA1004 for 5 passages to produce neurons. This was compared to the production of neurons obtained from precursor amplified using EFB medium as a reference.

Compound | neural precursor self-renewal (percentage of Ki67 positive cells) (neural precursors [1]) | ability of amplified neural precursors to produce neurons (neural precursors [2])
CC1CNCCN1S(=O)(=O)c1cccc2cnccc12 (centres unmarked) [H7] | sustained neural precursor self-renewal | –
NCCNS(=O)(=O)c1cccc2cnccc12 [H9] | sustained neural precursor self-renewal | –
Cl.N=C(N)NCCNS(=O)(=O)c1cccc2cnccc12 [HA1004, N-(2′-Guanidinoethyl)-5-isoquinolinesulfonamide.HCl] | – | did not impact on their ability to produce neurons
O=S(=O)(c1cccc2cnccc12)N1CCCNCC1 [HA1077] | sustained neural precursor self-renewal | –
CNCCNS(=O)(=O)c1cccc2cnccc12 [H8] | sustained neural precursor self-renewal | –
